Data taken from patent publication US20030027981A1, “Urokinase-type plasminogen activator receptor” (priority 1989, published 2003).

System: HT-1080 cells
Test: Formation of cell-bound plasmin on HT-1080 cells in serum culture (tranexamic acid eluate, thioesterase assay)
Format: cell-based, human
Settings: for Bound plasmin activity: 2 h, serum medium, all with Plg 40 μg/ml, aprotinin, anti-Plg-1, TA (100 μM) also with anti-PAI-1 10 μg/ml; for activity at 10 µM / activity at 100 µM: Homo sapiens, HT-1080; for activity at 10 µM: Plg 40 μg/ml + TA 10 μM; for activity at 100 µM: Plg 40 μg/ml + TA 100 μM
Procedure: Human fibrosarcoma cells (HT-1080, CCL 121) were obtained from the American Type Culture Collection, Rockville, Md. Confluent cell layers were grown in plastic Linbro wells (2 cm^2; Flow Laboratories) in Eagle's minimal essential medium (MEM) supplemented with 10% heat-inactivated (56° C. for 60 minutes) fetal calf serum (Gibco), 100 IU/ml penicillin and 50 μg/ml streptomycin. After reaching confluence, the cells were rinsed three times with MEM containing 0.2% bovine serum albumin (BSA), then changed to either serum-free medium (0.5 ml) or medium containing 10% heat-inactivated and plasminogen-depleted (i.e. absorbed with lysine-Sepharose; Pharmacia, Uppsala, Sweden) fetal calf serum as indicated in the Examples.
Human plasminogen (with glutamic acid N-terminal) was prepared by affinity chromatography on lysine-Sepharose (Deutsch, D. G., and E. T. Mertz, “Plasminogen: Purification from human plasma by affinity chromatography”, Science 170: 1095-1097, 1970) from freshly separated, unfrozen human plasma pretreated with 10 μM p-nitrophenyl guanidinobenzoate, 1 mM phenylmethylsulfonylfluoride and 0.1 μg/ml of an anti-catalytic murine monoclonal IgG antibody to human t-PA (ESP-2; see MacGregor, I. R. et al., “Characterization of epitopes on human tissue plasminogen activator recognised by a group of monoclonal antibodies”, Thromb. Haem. 53: 45-50, 1985); American Diagnostica, Greenwich, Conn.).
Res. 46: 755-766, 1987) titration equivalent of 3.6 IU u-PA/ml; an anti-catalytic murine monoclonal IgG antibody to human u-PA (clone 2 (10 μg/ml) in Nielsen, L. S. et al., “Enzyme-linked immunosorbent assay for human urokinase-type plasminogen activators and its proenzyme using a combination of monoclonal and polyclonal antibodies”, J. Immunoassay 7: 209-228, 1986); the anti-catalytic monoclonal antibody to human t-PA (10 μg/ml); a neutralising murine monoclonal IgG antibody to human PAI-1 (Nielsen, L. S. et al., “Monoclonal antibodies to human 54,000 molecular weight plasminogen activator inhibitor from fibrosarcoma cells—inhibitor neutralization and one-step affinity purification”, Thromb. Haem. 55: 206-212, 1986) (10 μg/ml) and diisopropyl fluorophosphate (DFP)-inactivated u-PA (0-10 μg/ml).
The plasmin activity of culture supernatant samples (50 μl) was assayed directly by incubation with the thioester substrate solution above (200 μl) for 30 minutes (serum-free supernatants) or 3 hours (serum-containing supernatants) at 37° C. An estimate of the amount of active plasmin present was made from calibration curves using human plasmin dilutions in serum-free medium covering the appropriate ranges of activity.
Plasmin bound to the cell layer was recovered and assayed as follows. After harvest of culture medium, the cells were rinsed three times with PBS (plasmin assays of further rinses were negative); then the bound plasmin was specifically eluted (Miles, L. A., and E. F. Plow, “Binding and activation of plasminogen on the platelet surface”, J. Biol. Chem. 260: 4303-4311, 1985) with a solution of 1 mM tranexamic acid in the same rinsing solution (150 μl/well). Plasmin activity was assayed in eluate samples (50 μl) as above with an incubation time of 3 hours at 37° C. Tranexamic acid at 1 mM had no effect on the thioesterase activity of plasmin in these assays.
The following additions were made to cell layers growing in MEM medium (0.5 ml) containing 10% heat-inactivated and plasminogen-depleted fetal calf serum: native human plasminogen (Plg, 40 μg/ml); anti-catalytic monoclonal antibody to human u-PA (10 μg/ml); anti-catalytic monoclonal antibody to human t-PA (10 μg/ml); PAI-2 (titration equivalent of 3.6 UI u-PA/ml); anti-catalytic monoclonal antibody to human plasmin (20 μg/ml); aprotinin (200 KIU/ml); tranexamic acid (TA, as shown). The cultures were incubated for the times shown before assay of cell-bound plasmin. The incubation with plasminogen was used as the 100% control for bound plasmin. […]

[1] = 3 h, serum medium with Plg 40 μg/ml (=100%), anti-u-PA 10 μg/ml, anti-t-PA 10 μg/ml, PAI-2 equiv. 3.6 IU u-PA/ml, aprotinin 200 KIU/ml, anti-Plg-1 20 μg/ml
[2] = 17 h, serum medium with Plg 40 μg/ml (=100%), additions as b555

Molecule: NC[C@H]1CC[C@H](C(=O)O)CC1 [TA, tranexamic acid]
- Bound plasmin activity: 0 ng
- activity at 10 µM (3 h): 9.7%
- activity at 100 µM (3 h): 2.2%
- activity at 10 µM (17 h): 34%
- activity at 100 µM (17 h): 13%

Molecule: Plg: native human plasminogen (glutamic acid N-terminal) purified from human plasma on lysine-Sepharose
- Plasmin recovered from the cell layer (40 μg/ml human plasminogen in 0.5 ml serum medium, 2 cm^2 cell layer, 3 hours 37° C.): 28 ng
- Plasmin measurable in the medium (40 μg/ml human plasminogen in 0.5 ml serum medium, 3 hours 37° C.): 10 ng
- Bound plasmin activity: 12 ng
- Bound plasmin activity (%) [1]: 100%
- Bound plasmin activity (%) [2]: 100%

Molecule: aprotinin
- Bound plasmin activity: 3.3 ng
- Bound plasmin activity (%) [1]: 13.2%
- Bound plasmin activity (%) [2]: 7.8%

B1: PAI-2: human type-2 plasminogen activator inhibitor purified from U937 cells (protein, UniProt P05120 1-415, looked up)
Plasminogen activator …: MEDLCVANTLFALNLFKHLAKASPTQNLFLSPWSISSTMAMVYMGSRGSTEDQMAKVLQFNEVGANAVTPMTPENFTSCGFMQQIQKGSYPDAILQAQAADKIHSSFRSLSSAINASTGNYLLESVNKLFGEKSASFREEYIRLCQKYYSSEPQAVDFLECAEEARKKINSWVKTQTKGKIPNLLPEGSVDGDTRMVLVNAVYFKGKWKTPFEKKLNGLYPFRVNSAQRTPVQMMYLREKLNIGYIEDLKAQILELPYAGDVSMFLLLPDEIADVSTGLELLESEITYDKLNKWTSKDKMAEDEVEVYIPQFKLEEHYELRSILRSMGMEDAFNKGRANFSGMSERNDLFLSEVFHQAMVDVNEEGTEAAAGTGGVMTGRTGHGGPQFVADHPFLFLIMHKITNCILFFGRFSSP
- Bound plasmin activity (%) [1]: 48%
- Bound plasmin activity (%) [2]: 19%
- Bound plasmin activity (%) (cells preincubated 1 h with inhibitor (anti-u-PA 10 μg/ml, PAI-2 equiv. 3.6 IU u-PA/ml), rinsed, then 3 h with Plg 40 μg/ml in serum medium): 54%
